Measured values as given in patent US8414926B1, “Nanoparticles with covalently bound surfactant for drug delivery” (University of South Florida, priority 2006, dated 2013).
Where a name gives a salt, the structure may show the parent alone.

Test system: human dermal fibroblasts
Assay: Effect of surfactant combined with control nanoparticles on fibroblasts
Assay type: cell-based
Conditions: for toxicity to fibroblasts: combined with control nanoparticles, human dermal fibroblasts
Experimental: FIG. 1 is a graph showing the effect of dodecyl sulfate combined with control nanoparticles against human dermal fibroblasts.
The control nanoparticles were added to the wells as an emulsion having 5% solid content, which reduced the amount of surfactant to 0.75%; therefore, more surfactant was added to the emulsion prior to placement in the cell-containing wells in order to reach the designated amounts of surfactant being tested. […] This may be due to interactions of the surfactant with the nanoparticles, which may prohibit the surfactant from interacting with the cells.

Structure (SMILES): CCCCCCCCCCCCOS(=O)(=O)O [dodecyl sulfate]
- toxicity to fibroblasts (1% surfactant): least toxic
- toxicity to fibroblasts (9% surfactant): kills all of the cells
- toxicity to fibroblasts combined with control nanoparticles versus without control nanoparticles (healthy fibroblasts): much less toxic
